Data reported in paper PMC7517944, “Design and Synthesis of Novel Nordihydroguaiaretic Acid (NDGA) Analogues as Potential FGFR1 Kinase Inhibitors With Anti-Gastric Activity and Chemosensitizing Effect” (Frontiers in Pharmacology, 2020).

The compounds below were run against T1, FGFR1 kinase (Homo sapiens, UniProt P11362) (assay: cell-free Caliper mobility shift kinase assay, […] inhibition at […]; also lowers p-FGFR1 in cells).
Format: biochemical

T1 sequence (P11362 22-822): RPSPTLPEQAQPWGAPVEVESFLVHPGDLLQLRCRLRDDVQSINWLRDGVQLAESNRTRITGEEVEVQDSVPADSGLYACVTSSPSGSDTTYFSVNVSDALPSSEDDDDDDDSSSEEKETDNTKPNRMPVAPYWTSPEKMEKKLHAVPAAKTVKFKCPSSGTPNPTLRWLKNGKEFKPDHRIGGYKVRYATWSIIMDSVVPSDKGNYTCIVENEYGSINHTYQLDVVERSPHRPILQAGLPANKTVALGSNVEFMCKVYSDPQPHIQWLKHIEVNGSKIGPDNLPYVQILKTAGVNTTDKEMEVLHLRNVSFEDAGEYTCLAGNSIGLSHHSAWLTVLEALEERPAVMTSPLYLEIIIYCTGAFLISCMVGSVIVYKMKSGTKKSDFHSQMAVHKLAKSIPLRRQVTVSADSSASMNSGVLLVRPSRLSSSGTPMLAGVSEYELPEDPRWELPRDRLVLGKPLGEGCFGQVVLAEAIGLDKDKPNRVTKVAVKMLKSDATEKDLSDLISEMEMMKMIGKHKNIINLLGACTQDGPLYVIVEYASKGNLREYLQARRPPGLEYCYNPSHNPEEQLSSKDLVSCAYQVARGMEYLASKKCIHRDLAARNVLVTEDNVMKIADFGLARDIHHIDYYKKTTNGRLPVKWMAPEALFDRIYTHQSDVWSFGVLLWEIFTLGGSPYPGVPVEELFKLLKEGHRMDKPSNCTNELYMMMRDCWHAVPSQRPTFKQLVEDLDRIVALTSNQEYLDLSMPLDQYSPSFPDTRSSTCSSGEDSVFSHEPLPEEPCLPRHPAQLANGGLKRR

Compound	inhibition at 20 µM
COc1cccc(/C=C2\COC/C(=C\c3ccc(O)c(O)c3)C2=O)c1OC [Y14, (3E,5E)-3-(3,4-dihydroxybenzylidene)-5-(2,3-dimethoxybenzylidene)dihydro-2H-pyran-4(3H)-one]	92%

The compounds below were run against T1, FGFR1 kinase (assay: cell-free Caliper mobility shift kinase assay, inhibition at […]).
Format: biochemical

Compound	inhibition at 20 µM
O=C1/C(=C/c2ccc(O)c(O)c2)COC/C1=C\c1ccc(O)c(O)c1 [Af23]	92.8%
COc1ccc(OC)c(/C=C2\COC/C(=C\c3ccc(O)c(O)c3)C2=O)c1 [Y15, (3E,5E)-3-(3,4-dihydroxybenzylidene)-5-(2,5-dimethoxybenzylidene)dihydro-2H-pyran-4(3H)-one]	67.6%
O=C1/C(=C/c2ccc(N3CCOCC3)cc2)COC/C1=C\c1ccc(O)c(O)c1 [Y13, (3E,5E)-3-(3,4-dihydroxybenzylidene)-5-(4-morpholinobenzylidene)dihydro-2H-pyran-4(3H)-one]	71.4%
COc1ccc(/C=C2\COC/C(=C\c3ccc(O)c(O)c3)C2=O)cc1O [Y9, (3E,5E)-3-(3,4-dihydroxybenzylidene)-5-(3-hydroxy-4-methoxybenzylidene)dihydro-2H-pyran-4(3H)-one]	53.5%

More lines, now with the values ahead:

inhibition at 20 µM	Compound
54.2%	COc1ccccc1/C=C1\COC/C(=C\c2ccc(O)c(O)c2)C1=O [Y11, (3E,5E)-3-(3,4-dihydroxybenzylidene)-5-(2-methoxybenzylidene)dihydro-2H-pyran-4(3H)-one]
78.5%	O=C1/C(=C/c2ccc(O)cc2)COC/C1=C\c1ccc(O)c(O)c1 [Y5, (3E,5E)-3-(3,4-dihydroxybenzylidene)-5-(4-hydroxybenzylidene)dihydro-2H-pyran-4(3H)-one]
55.7%	COc1cc(/C=C2\COC/C(=C\c3ccc(O)c(O)c3)C2=O)ccc1O [Y2, (3E,5E)-3-(3,4-dihydroxybenzylidene)-5-(4-hydroxy-3-methoxybenzylidene)dihydro-2H-pyran-4(3H)-one]
73.7%	O=C1/C(=C/c2cccc(O)c2)COC/C1=C\c1ccc(O)c(O)c1 [Y7, (3E,5E)-3-(3,4-dihydroxybenzylidene)-5-(3-hydroxybenzylidene)dihydro-2H-pyran-4(3H)-one]
